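Test compounds were applied to cells in 96-well plates for 48 hours at 5 doses. TGI: concentration producing complete growth inhibition.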
What was measured:
Experiment in all cases: growth of human tumour cells (NCI), 48 h
OVCAR-4 ovarian = tested on: OVCAR-4 ovarian
HCT-116 colon = tested on: HCT-116 colon
HS 578T breast = tested on: HS 578T breast
KM12 colon = tested on: KM12 colon
CAKI-1 renal = tested on: CAKI-1 renal
HCC-2998 colon = tested on: HCC-2998 colon
MCF7 breast = tested on: MCF7 breast
UACC-257 melanoma = tested on: UACC-257 melanoma
HCT-15 colon = tested on: HCT-15 colon
LOX IMVI melanoma = tested on: LOX IMVI melanoma
TK-10 renal = tested on: TK-10 renal
HT29 colon = tested on: HT29 colon
MOLT-4 leukemia = tested on: MOLT-4 leukemia
RPMI-8226 leukemia = tested on: RPMI-8226 leukemia
ACHN renal = tested on: ACHN renal
BT-549 breast = tested on: BT-549 breast
M14 melanoma = tested on: M14 melanoma
CCRF-CEM leukemia = tested on: CCRF-CEM leukemia
U251 CNS = tested on: U251 CNS
HOP-62 NSCLC = tested on: HOP-62 NSCLC
NCI-H226 lung = tested on: NCI-H226 lung
IGROV1 ovarian = tested on: IGROV1 ovarian
OVCAR-5 ovarian = tested on: OVCAR-5 ovarian
A498 renal = tested on: A498 renal
OVCAR-8 ovarian = tested on: OVCAR-8 ovarian
A549 NSCLC = tested on: A549 NSCLC
SN12C renal = tested on: SN12C renal
DU-145 prostate = tested on: DU-145 prostate
MDA-N = tested on: MDA-N
HOP-92 NSCLC = tested on: HOP-92 NSCLC
EKVX NSCLC = tested on: EKVX NSCLC
786-0 renal = tested on: 786-0 renal
UO-31 renal = tested on: UO-31 renal
UACC-62 melanoma = tested on: UACC-62 melanoma
SK-OV-3 ovarian = tested on: SK-OV-3 ovarian
HL-60(TB) leukemia = tested on: HL-60(TB) leukemia
SK-MEL-28 melanoma = tested on: SK-MEL-28 melanoma
OVCAR-3 ovarian = tested on: OVCAR-3 ovarian
SK-MEL-5 melanoma = tested on: SK-MEL-5 melanoma
SNB-75 CNS = tested on: SNB-75 CNS
SW-620 colon = tested on: SW-620 colon
NCI-H522 lung = tested on: NCI-H522 lung
SF-268 CNS = tested on: SF-268 CNS
T-47D breast = tested on: T-47D breast
K-562 leukemia = tested on: K-562 leukemia
MALME-3M melanoma = tested on: MALME-3M melanoma
SK-MEL-2 melanoma = tested on: SK-MEL-2 melanoma
SF-539 CNS = tested on: SF-539 CNS
NCI-H460 lung = tested on: NCI-H460 lung
COLO 205 colon = tested on: COLO 205 colon
NCI-H23 lung = tested on: NCI-H23 lung
MDA-MB-435 = tested on: MDA-MB-435
PC-3 prostate = tested on: PC-3 prostate
NCI/ADR-RES ovarian = tested on: NCI/ADR-RES ovarian
SNB-19 CNS = tested on: SNB-19 CNS
SF-295 CNS = tested on: SF-295 CNS
MDA-MB-231 breast = tested on: MDA-MB-231 breast
RXF 393 renal = tested on: RXF 393 renal

OC(c1ccc(F)cc1)(c1ccc(F)cc1)C1CC1
TGI (OVCAR-4 ovarian): 79.2 µM | TGI (HCT-116 colon): > 100 µM | TGI (HS 578T breast): 82.6 µM | TGI (KM12 colon): > 100 µM | TGI (CAKI-1 renal): 98.7 µM | TGI (HCC-2998 colon): 45.7 µM | TGI (MCF7 breast): > 100 µM | TGI (UACC-257 melanoma): 73 µM | TGI (HCT-15 colon): 68.2 µM | TGI (LOX IMVI melanoma): 48.2 µM | TGI (TK-10 renal): > 100 µM | TGI (HT29 colon): 65.9 µM | TGI (MOLT-4 leukemia): 49.2 µM | TGI (RPMI-8226 leukemia): 59.2 µM | TGI (ACHN renal): > 100 µM | TGI (BT-549 breast): 37.9 µM | TGI (M14 melanoma): 69.2 µM | TGI (CCRF-CEM leukemia): 95.8 µM | TGI (U251 CNS): 59.6 µM | TGI (HOP-62 NSCLC): > 100 µM | TGI (NCI-H226 lung): 88.1 µM | TGI (IGROV1 ovarian): > 100 µM | TGI (OVCAR-5 ovarian): > 100 µM | TGI (A498 renal): 77.8 µM | TGI (OVCAR-8 ovarian): > 100 µM | TGI (A549 NSCLC): 94.2 µM | TGI (SN12C renal): 53.6 µM | TGI (DU-145 prostate): > 100 µM | TGI (MDA-N): 44.1 µM | TGI (HOP-92 NSCLC): 97 µM | TGI (EKVX NSCLC): 96.2 µM | TGI (786-0 renal): > 100 µM | TGI (UO-31 renal): 59.5 µM | TGI (UACC-62 melanoma): > 100 µM | TGI (SK-OV-3 ovarian): > 100 µM | TGI (HL-60(TB) leukemia): 47.3 µM | TGI (SK-MEL-28 melanoma): > 100 µM | TGI (OVCAR-3 ovarian): > 100 µM | TGI (SK-MEL-5 melanoma): 30.2 µM | TGI (SNB-75 CNS): > 100 µM | TGI (SW-620 colon): > 100 µM | TGI (NCI-H522 lung): 52.9 µM | TGI (SF-268 CNS): > 100 µM | TGI (T-47D breast): > 100 µM | TGI (K-562 leukemia): > 100 µM | TGI (MALME-3M melanoma): 65.2 µM | TGI (SK-MEL-2 melanoma): 32.5 µM | TGI (SF-539 CNS): > 100 µM | TGI (NCI-H460 lung): > 100 µM | TGI (COLO 205 colon): 29.7 µM | TGI (NCI-H23 lung): 35.9 µM | TGI (MDA-MB-435): 74.2 µM | TGI (PC-3 prostate): 53.7 µM | TGI (NCI/ADR-RES ovarian): 58 µM | TGI (SNB-19 CNS): > 100 µM | TGI (SF-295 CNS): > 100 µM | TGI (MDA-MB-231 breast): > 100 µM | TGI (RXF 393 renal): 67.7 µM

CN(C)c1ccc(/C=C2\N=C(N/N=C/c3ccc(N(C)C)cc3)NC2=O)cc1
TGI (OVCAR-4 ovarian): > 100 µM | TGI (HCT-116 colon): > 100 µM | TGI (HS 578T breast): > 100 µM | TGI (KM12 colon): > 100 µM | TGI (CAKI-1 renal): > 100 µM | TGI (HCC-2998 colon): > 100 µM | TGI (MCF7 breast): > 100 µM | TGI (UACC-257 melanoma): > 100 µM | TGI (HCT-15 colon): > 100 µM | TGI (TK-10 renal): > 100 µM | TGI (HT29 colon): > 100 µM | TGI (MOLT-4 leukemia): > 100 µM | TGI (RPMI-8226 leukemia): > 100 µM | TGI (ACHN renal): > 100 µM | TGI (BT-549 breast): > 100 µM | TGI (M14 melanoma): > 100 µM | TGI (CCRF-CEM leukemia): > 100 µM | TGI (U251 CNS): > 100 µM | TGI (HOP-62 NSCLC): > 100 µM | TGI (NCI-H226 lung): > 100 µM | TGI (IGROV1 ovarian): > 100 µM | TGI (OVCAR-5 ovarian): > 100 µM | TGI (A498 renal): > 100 µM | TGI (OVCAR-8 ovarian): 72.7 µM | TGI (A549 NSCLC): > 100 µM | TGI (SN12C renal): > 100 µM | TGI (DU-145 prostate): 96 µM | TGI (MDA-N): > 100 µM | TGI (HOP-92 NSCLC): 98.4 µM | TGI (EKVX NSCLC): > 100 µM | TGI (786-0 renal): > 100 µM | TGI (UO-31 renal): > 100 µM | TGI (UACC-62 melanoma): > 100 µM | TGI (SK-OV-3 ovarian): > 100 µM | TGI (HL-60(TB) leukemia): > 100 µM | TGI (SK-MEL-28 melanoma): > 100 µM | TGI (OVCAR-3 ovarian): > 100 µM | TGI (SK-MEL-5 melanoma): > 100 µM | TGI (SNB-75 CNS): > 100 µM | TGI (SW-620 colon): > 100 µM | TGI (NCI-H522 lung): > 100 µM | TGI (SF-268 CNS): > 100 µM | TGI (T-47D breast): > 100 µM | TGI (MALME-3M melanoma): > 100 µM | TGI (SK-MEL-2 melanoma): > 100 µM | TGI (NCI-H460 lung): > 100 µM | TGI (COLO 205 colon): > 100 µM | TGI (NCI-H23 lung): > 100 µM | TGI (MDA-MB-435): > 100 µM | TGI (PC-3 prostate): > 100 µM | TGI (NCI/ADR-RES ovarian): > 100 µM | TGI (SNB-19 CNS): > 100 µM | TGI (SF-295 CNS): > 100 µM | TGI (MDA-MB-231 breast): > 100 µM | TGI (RXF 393 renal): 53.8 µM

Oc1cccc2cc(Cl)cnc12
TGI (OVCAR-4 ovarian): > 90.6 µM | TGI (HCT-116 colon): 37.8 µM | TGI (HS 578T breast): > 83.5 µM | TGI (KM12 colon): > 100 µM | TGI (CAKI-1 renal): > 100 µM | TGI (HCC-2998 colon): > 88.4 µM | TGI (MCF7 breast): > 100 µM | TGI (UACC-257 melanoma): 81.7 µM | TGI (HCT-15 colon): > 100 µM | TGI (LOX IMVI melanoma): > 64.1 µM | TGI (TK-10 renal): > 100 µM | TGI (HT29 colon): > 69.2 µM | TGI (MOLT-4 leukemia): 27.4 µM | TGI (RPMI-8226 leukemia): 61.6 µM | TGI (ACHN renal): > 100 µM | TGI (BT-549 breast): > 100 µM | TGI (M14 melanoma): > 100 µM | TGI (CCRF-CEM leukemia): 15.5 µM | TGI (U251 CNS): > 100 µM | TGI (HOP-62 NSCLC): > 100 µM | TGI (NCI-H226 lung): 97.5 µM | TGI (IGROV1 ovarian): > 83.4 µM | TGI (OVCAR-5 ovarian): > 100 µM | TGI (A498 renal): > 77.5 µM | TGI (OVCAR-8 ovarian): > 100 µM | TGI (A549 NSCLC): > 100 µM | TGI (SN12C renal): > 100 µM | TGI (DU-145 prostate): > 100 µM | TGI (MDA-N): > 100 µM | TGI (HOP-92 NSCLC): > 100 µM | TGI (EKVX NSCLC): 98.9 µM | TGI (786-0 renal): > 100 µM | TGI (UO-31 renal): > 100 µM | TGI (UACC-62 melanoma): > 44.7 µM | TGI (SK-OV-3 ovarian): > 100 µM | TGI (HL-60(TB) leukemia): 6.27 µM | TGI (SK-MEL-28 melanoma): > 100 µM | TGI (OVCAR-3 ovarian): > 31.1 µM | TGI (SK-MEL-5 melanoma): 99.1 µM | TGI (SNB-75 CNS): > 100 µM | TGI (SW-620 colon): > 100 µM | TGI (NCI-H522 lung): 22 µM | TGI (SF-268 CNS): > 100 µM | TGI (T-47D breast): > 68.5 µM | TGI (K-562 leukemia): 38.3 µM | TGI (MALME-3M melanoma): > 100 µM | TGI (SK-MEL-2 melanoma): > 100 µM | TGI (SF-539 CNS): 99 µM | TGI (NCI-H460 lung): > 100 µM | TGI (COLO 205 colon): > 100 µM | TGI (NCI-H23 lung): > 100 µM | TGI (MDA-MB-435): > 100 µM | TGI (PC-3 prostate): > 100 µM | TGI (NCI/ADR-RES ovarian): 30.3 µM | TGI (SNB-19 CNS): > 100 µM | TGI (SF-295 CNS): > 100 µM | TGI (MDA-MB-231 breast): > 100 µM | TGI (RXF 393 renal): > 79.6 µM

From PubChem BioAssay (NCI)
